Our source for the DC50 values is US12091411B2, “IRAK degraders and uses thereof” (Kymera Therapeutics, Inc., priority 2022, dated 2024).

Where two headings read alike, the source gives them in different places.

In the experiment the target is T1, IRAK4 (Homo sapiens, UniProt Q9NWZ3).
T1 construct: Degradation of IRAK4 in OCI-LY10 was quantitatively measured using Meso Scale Discovery technology; endogenous in cells; host or cells: OCI-LY10
T1 sequence (Q9NWZ3 1-460): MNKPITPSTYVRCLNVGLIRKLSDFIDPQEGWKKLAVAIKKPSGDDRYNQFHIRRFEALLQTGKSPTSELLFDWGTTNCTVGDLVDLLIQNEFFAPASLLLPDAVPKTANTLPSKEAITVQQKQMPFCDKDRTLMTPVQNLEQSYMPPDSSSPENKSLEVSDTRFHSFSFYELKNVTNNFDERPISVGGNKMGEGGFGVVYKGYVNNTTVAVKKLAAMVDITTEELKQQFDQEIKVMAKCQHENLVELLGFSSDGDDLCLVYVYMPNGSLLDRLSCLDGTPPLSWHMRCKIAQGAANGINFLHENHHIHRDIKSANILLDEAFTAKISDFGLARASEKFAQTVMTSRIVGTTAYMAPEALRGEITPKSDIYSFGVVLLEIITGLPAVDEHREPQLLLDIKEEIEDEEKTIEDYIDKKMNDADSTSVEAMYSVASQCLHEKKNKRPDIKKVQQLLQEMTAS
Briefly: IRAK4 MSD Degradation in OCI-LY10. It is filed as cell-based. Particulars: OCI-LY10 cells, MSD. The gist of the method: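 OCI-LY10 cells exposed to 8-point 1:3 compound series (top 1 to 10 μM) for 4 to 24 h at 37 °C, 5% CO2. Lysate IRAK4 quantified by MSD sandwich immunoassay. DC50 from three-parameter logistic fit, binned A (<0.01 μM) to D (>0.2 μM or not tested).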

The mark [1] stands for this setting: 4 hrs incubation, read-out: IRAK4 degradation in OCI-LY10 at 4 hrs: DC50.
The mark [2] stands for this setting: 24 hrs incubation, read-out: IRAK4 degradation in OCI-LY10 at 24 hrs: DC50.

Regarding `CC1CCN(c2ccn3ncc(C(=O)Nc4cn([C@H]5CC[C@H](CN6CCN(CC#Cc7cccc8c7n(C)c(=O)n8C7CCC(=O)NC7=O)CC6)CC5)nc4C(F)F)c3n2)CC1` (some centres unmarked) [I-282], the DC50 is, setting by setting: under setting [1], over 0.2 µM; under setting [2], 0.01 to 0.1 µM.

For the molecule `Cn1c(=O)n(C2CCC(=O)NC2=O)c2cccc(C#CCN3CCN(C[C@H]4CC[C@H](n5cc(NC(=O)c6cnn7ccc(N8CCCCCC8)nc67)c(C(F)F)n5)CC4)CC3)c21` (some centres unmarked) [I-283], the DC50 under setting [1] was over 0.2 µM and the DC50 under setting [2] lay within 0.01 to 0.1 µM.

Consider `Cn1c(=O)n(C2CCC(=O)NC2=O)c2cccc(C#CCN3CCN(C[C@H]4CC[C@H](n5cc(NC(=O)c6cnn7cccnc67)c(C(C)(C)O)n5)CC4)CC3)c21` (some centres unmarked) [I-284], for which the DC50 is over 0.2 µM under setting [1] and over 0.2 µM under setting [2].

Take `Cn1c(=O)n(C2CCC(=O)NC2=O)c2cccc(C#CCN3CCN(C[C@H]4CC[C@H](n5cc(NC(=O)c6cnn7ccc(N8CCC8)nc67)c(C(C)(C)O)n5)CC4)CC3)c21` (some centres unmarked) [I-285]: the DC50 under setting [1] was over 0.2 µM and the DC50 under setting [2] is over 0.2 µM.

Consider `Cn1c(=O)n(C2CCC(=O)NC2=O)c2cccc(C#CCN3CCN(C[C@H]4CC[C@H](n5cc(NC(=O)c6cnn7ccc(N8CCOC9(CC9)C8)nc67)c(C(F)F)n5)CC4)CC3)c21` (some centres unmarked) [I-286], for which the DC50 is over 0.2 µM under setting [1] and under 0.01 µM under setting [2].

For `Cn1c(=O)n(C2CCC(=O)NC2=O)c2cccc(C#CCN3CCN(C[C@H]4CC[C@H](n5cc(NC(=O)c6cnn7ccc(N8CCOC9(CCC9)C8)nc67)c(C(F)F)n5)CC4)CC3)c21` (some centres unmarked) [I-287], the DC50 reads like this: under setting [1], over 0.2 µM; under setting [2], under 0.01 µM.

As for `CC1CN(c2ccn3ncc(C(=O)Nc4cn([C@H]5CC[C@H](CN6CCN(CC#Cc7cccc8c7n(C)c(=O)n8C7CCC(=O)NC7=O)CC6)CC5)nc4C(F)F)c3n2)CCO1` (some centres unmarked) [I-288], the DC50 is over 0.2 µM under setting [1] and over 0.2 µM under setting [2].

`CC1CN(c2ccn3ncc(C(=O)Nc4cn([C@H]5CC[C@H](CN6CCN(CC#Cc7cccc8c7n(C)c(=O)n8C7CCC(=O)NC7=O)CC6)CC5)nc4C(F)F)c3n2)CC(C)O1` (some centres unmarked) [I-289]: the DC50 is, setting by setting: under setting [1], over 0.2 µM; under setting [2], over 0.2 µM.

Regarding `Cn1c(=O)n(C2CCC(=O)NC2=O)c2cccc(C#CCN3CCN(C[C@H]4CC[C@H](n5cc(NC(=O)c6cnn7ccc(N8C[C@H]9CC[C@@H](C8)O9)nc67)c(C(F)F)n5)CC4)CC3)c21` (some centres unmarked) [I-290], the DC50 under setting [1] was over 0.2 µM and the DC50 under setting [2] is under 0.01 µM.

Consider `Cn1c(=O)n(C2CCC(=O)NC2=O)c2cccc(C#CCN3CCN(C[C@H]4CC[C@H](n5cc(NC(=O)c6cnn7ccc(N8CCCOCC8)nc67)c(C(F)F)n5)CC4)CC3)c21` (some centres unmarked) [I-291], for which the DC50 runs as follows: under setting [1], over 0.2 µM; under setting [2], under 0.01 µM.

As for `Cc1ccc(-c2nn([C@H]3CC[C@H](CN(C)C4CCN(c5cccc6c5n(C)c(=O)n6C5CCC(=O)NC5=O)CC4)CC3)cc2NC(=O)c2cnn3cccnc23)nc1` (some centres unmarked) [I-292], the DC50 reads like this: under setting [1], over 0.2 µM; under setting [2], under 0.01 µM.

As to `Cc1ccc(-c2nn([C@H]3CC[C@H](CN(C)C4CCN(c5cccc6c5n(C)c(=O)n6C5CCC(=O)NC5=O)CC4)CC3)cc2NC(=O)c2cnn3cccnc23)c(F)c1` (some centres unmarked) [I-293], the DC50 by setting is: under setting [1], over 0.2 µM; under setting [2], over 0.2 µM.

As to `Cn1c(=O)n(C2CCC(=O)NC2=O)c2cccc(C#CCN3CCN(C[C@H]4CC[C@H](n5cc(NC(=O)c6cnn7ccc(N8CCSCC8)nc67)c(C(F)F)n5)CC4)CC3)c21` (some centres unmarked) [I-294], the DC50 by setting is: under setting [1], over 0.2 µM; under setting [2], under 0.01 µM.

With `Cn1c(=O)n(C2CCC(=O)NC2=O)c2cccc(C#CCN3CCN(C[C@H]4CC[C@H](n5cc(NC(=O)c6cnn7ccc(N8CCS(=O)(=O)CC8)nc67)c(C(F)F)n5)CC4)CC3)c21` (some centres unmarked) [I-295], the DC50 under setting [1] is over 0.2 µM and the DC50 under setting [2] was under 0.01 µM.

For `Cn1c(=O)n(C2CCC(=O)NC2=O)c2cccc(C#CCN3CCN(C[C@H]4CC[C@H](n5cc(NC(=O)c6cnn7ccc(N8CCC9(CC8)COC9)nc67)c(C(F)F)n5)CC4)CC3)c21` (some centres unmarked) [I-296], the half-maximal degradation concentration (DC50) runs as follows: under setting [1], 0.01 to 0.1 µM; under setting [2], over 0.2 µM.

For `CN1CC2(CCN(c3ccn4ncc(C(=O)Nc5cn([C@H]6CC[C@H](CN7CCN(CC#Cc8cccc9c8n(C)c(=O)n9C8CCC(=O)NC8=O)CC7)CC6)nc5C(F)F)c4n3)CC2)C1` (some centres unmarked) [I-297], the DC50 was over 0.2 µM under setting [1] and over 0.2 µM under setting [2].

As for `Cn1c(=O)n(C2CCC(=O)NC2=O)c2cccc(C#CCN3CCN(C[C@H]4CC[C@H](n5cc(NC(=O)c6cnn7ccc(C8CCOCC8)nc67)c(C(F)F)n5)CC4)CC3)c21` (some centres unmarked) [I-298], the DC50 under setting [1] is over 0.2 µM and the DC50 under setting [2] is under 0.01 µM.

With `Cn1c(=O)n(C2CCC(=O)NC2=O)c2cccc(C#CCN3CCN(C[C@H]4CC[C@H](n5cc(NC(=O)c6cnn7ccc(N8CCNCC8)nc67)c(C(F)F)n5)CC4)CC3)c21` (some centres unmarked) [I-299], the DC50 was over 0.2 µM under setting [1] and under 0.01 µM under setting [2].

Consider `CN1CCN(c2ccn3ncc(C(=O)Nc4cn([C@H]5CC[C@H](CN6CCN(CC#Cc7cccc8c7n(C)c(=O)n8C7CCC(=O)NC7=O)CC6)CC5)nc4C(F)F)c3n2)CC1` (some centres unmarked) [I-300], for which the DC50 is over 0.2 µM under setting [1] and under 0.01 µM under setting [2].

Turning to `Cn1c(=O)n(C2CCC(=O)NC2=O)c2cccc(C#CCN3CCN(C[C@H]4CC[C@H](n5cc(NC(=O)c6cnn7ccc(C8COCCN8)nc67)c(C(F)F)n5)CC4)CC3)c21` (some centres unmarked) [I-301], the DC50 runs as follows: under setting [1], over 0.2 µM; under setting [2], over 0.2 µM.

`CN1CCOCC1c1ccn2ncc(C(=O)Nc3cn([C@H]4CC[C@H](CN5CCN(CC#Cc6cccc7c6n(C)c(=O)n7C6CCC(=O)NC6=O)CC5)CC4)nc3C(F)F)c2n1` (some centres unmarked) [I-302]: the DC50 reads like this: under setting [1], over 0.2 µM; under setting [2], over 0.2 µM.

Take `Cn1c(=O)n(C2CCC(=O)NC2=O)c2cccc(C#CCOC3CCN(C[C@H]4CC[C@H](n5cc(NC(=O)c6cnn7ccc(N8CCSCC8)nc67)c(C(F)F)n5)CC4)CC3)c21` (some centres unmarked) [I-303]: the DC50 was over 0.2 µM under setting [1] and under 0.01 µM under setting [2].

With `Cn1c(=O)n(C2CCC(=O)NC2=O)c2cccc(C#CCOC3CCN(C[C@H]4CC[C@H](n5cc(NC(=O)c6cnn7ccc(N8CCS(=O)(=O)CC8)nc67)c(C(F)F)n5)CC4)CC3)c21` (some centres unmarked) [I-304], the DC50 reads like this: under setting [1], over 0.2 µM; under setting [2], under 0.01 µM.

Take `Cn1c(=O)n(C2CCC(=O)NC2=O)c2cccc(C#CCOC3CCN(C[C@H]4CC[C@H](n5cc(NC(=O)c6cnn7ccc(N8CCC9(CC8)COC9)nc67)c(C(F)F)n5)CC4)CC3)c21` (some centres unmarked) [I-305]: the DC50 runs as follows: under setting [1], over 0.2 µM; under setting [2], over 0.2 µM.

Take `CN1CC2(CCN(c3ccn4ncc(C(=O)Nc5cn([C@H]6CC[C@H](CN7CCC(OCC#Cc8cccc9c8n(C)c(=O)n9C8CCC(=O)NC8=O)CC7)CC6)nc5C(F)F)c4n3)CC2)C1` (some centres unmarked) [I-306]: the DC50 was over 0.2 µM under setting [1] and over 0.2 µM under setting [2].

For `Cn1c(=O)n(C2CCC(=O)NC2=O)c2cccc(C#CCOC3CCN(C[C@H]4CC[C@H](n5cc(NC(=O)c6cnn7ccc(C8CCOCC8)nc67)c(C(F)F)n5)CC4)CC3)c21` (some centres unmarked) [I-307], the DC50 reads like this: under setting [1], over 0.2 µM; under setting [2], under 0.01 µM.

Turning to `Cn1c(=O)n(C2CCC(=O)NC2=O)c2cccc(C#CCOC3CCN(C[C@H]4CC[C@H](n5cc(NC(=O)c6cnn7ccc(N8CCNCC8)nc67)c(C(F)F)n5)CC4)CC3)c21` (some centres unmarked) [I-308], the DC50 is, setting by setting: under setting [1], over 0.2 µM; under setting [2], under 0.01 µM.

As to `CN1CCN(c2ccn3ncc(C(=O)Nc4cn([C@H]5CC[C@H](CN6CCC(OCC#Cc7cccc8c7n(C)c(=O)n8C7CCC(=O)NC7=O)CC6)CC5)nc4C(F)F)c3n2)CC1` (some centres unmarked) [I-309], the DC50 is over 0.2 µM under setting [1] and under 0.01 µM under setting [2].

In general, DC50 refers to the concentration at which degradation of the target reaches its halfway point.
